Data published in publication PMC7129073 (Clinical Microbiology and Infection, 2015).

How the values were obtained:
[1] = test system: Pseudomonas aeruginosa (PSA); experiment: Vitek 2 susceptibility, urine isolates of children; format: cell-based; settings: both departments
Acinetobacter = experiment: Disk diffusion; format: cell-based; settings: 37 isolates selected as resistant to beta-lactams
Pseudomonas spp. = experiment: MIC; format: cell-based
B. fragilis group = experiment: NCCLS broth microdilution, beta-lactamase positive isolates; format: cell-based, Bacteroides fragilis group; settings: 449 isolates
[2] = test system: inducible Enterobacteriaceae; experiment: SMART 2003, intraabdominal isolates; format: cell-based
Enterobacteriaceae = experiment: SMART 2003 Europe, microdilution; format: cell-based; settings: 1948 isolates
E. coli [3] = experiment: SMART 2003 Europe, microdilution; format: cell-based, Escherichia coli; settings: 1106 isolates
Klebsiella = experiment: SMART 2003 Europe, microdilution; format: cell-based, Klebsiella spp.; settings: 341 isolates
A. baumannii = experiment: Italian survey of severe infections 2003, MIC; format: cell-based, Acinetobacter baumannii
B.cepacia = experiment: Italian survey of severe infections 2003, MIC; format: cell-based, Burkholderia cepacia
Escherichia coli (ECO) = experiment: Broth microdilution; format: cell-based; settings: 2001
E. faecalis = experiment: E-test susceptibility; format: cell-based, Enterococcus faecalis
E. coli [4] = experiment: E-test susceptibility; format: cell-based, Escherichia coli
K. oxytoca = experiment: E-test susceptibility; format: cell-based, Klebsiella oxytoca
Enterobacter spp = experiment: E-test susceptibility; format: cell-based
Gram-negative rods = experiment: Microscan MIC, blood culture isolates; format: cell-based
Streptococcus pneumoniae = experiment: Susceptibility testing; format: cell-based; settings: 99 isolates tested
Haemophilus influenzae = experiment: Susceptibility testing; format: cell-based; settings: conjunctival isolates 2000–2004
Staphylococcus aureus [5] = experiment: Susceptibility testing; format: cell-based; settings: conjunctival isolates 2000–2004
[6] = test system: Staphylococcus coagulase negative (CNS); experiment: Susceptibility testing; format: cell-based; settings: conjunctival isolates 2000–2004
S. aureus SCVs = experiment: Resistance of small colony variants from cystic fibrosis patients; format: cell-based, Staphylococcus aureus; settings: CF patients, Frankfurt 2004
K. pneumoniae = experiment: MIC; format: cell-based, Klebsiella pneumoniae; settings: BSAC
[7] = test system: viridans group streptococci (VGS); experiment: MIC; format: cell-based; settings: 107 strains
[8] = test system: Salmonella serotype Enteritidis; experiment: Disk diffusion, food isolates Spain; format: cell-based; settings: n = 96
[9] = test system: Salmonella serotype Typhimurium; experiment: Disk diffusion, food isolates Spain; format: cell-based; settings: n = 53
[10] = test system: Salmonella, other 49 serotypes; experiment: Disk diffusion, food isolates Spain; format: cell-based; settings: n = 115
Shigella spp. = experiment: Disk diffusion, stool isolates Tehran; format: cell-based; settings: 96 isolates
[11] = test system: glycopeptide intermediate Staphylococcus species (GISS); experiment: VITEK II, screening plate and E test, blood isolates; format: cell-based, coagulase-negative Staphylococci; settings: 73 GISS strains
[12] = test system: biofilms of S. aureus (SA204 and SA195) and S. epidermidis (ATCC35983 and ATCC35984); experiment: Antibiotic lock, in vitro biofilm on polyurethane film, viable counts; format: cell-based, Staphylococcus species; settings: any of the time intervals examined
Staphylococcus aureus [13] = experiment: EARSS Ireland, invasive isolates; format: cell-based
Escherichia coli = experiment: EARSS Ireland, invasive isolates; format: cell-based; settings: Jan'01–Jun'04, 2432 isolates
nontyphoidal Salmonella = experiment: Agar dilution, isolates from chickens 1998–2004; format: cell-based, Salmonella spp.
enterococci = experiment: Disk diffusion, urine isolates of BPH patients; settings: strains isolated post-operatively
E. coli [14] = experiment: Disk diffusion, urine isolates of BPH patients; settings: strains isolated after operative intervention
P. aeruginosa = experiment: Disk diffusion, urine isolates of BPH patients
[15] = ICU, SRGA breakpoints, tigecycline tentative S ≤2 μg/ml

In the case of piperacillin/tazobactam, the Susceptible isolates [1] is reported as 74-100%, the resistant isolates (Acinetobacter) is reported as 43.2% and the susceptible strains (Pseudomonas spp.) is reported as 92%. The “isolates inhibited at =/< 32 mg/L” value (B. fragilis group) was greater than 99%, the “% susceptible” value ([2]; A/P (N = 200)) was 80% and the “% susceptible” value ([2]; EU (N = 354)) was 85%. For the same compound, the “% susceptible” value ([2]; LA (N=113)) was 78%, the “% susceptible” value ([2]; NA (N = 163)) was 82% and the per cent susceptible (Enterobacteriaceae) was 91%. It also gave a per cent susceptible (E. coli [3]) of 94%, a per cent susceptible (Klebsiella) of 85% and a resistance (A. baumannii) of 13.3%. For the same compound, the resistance (B.cepacia) was 7.2%, the susceptible (Escherichia coli (ECO); NAL-resistant isolates) was 85.7% and the susceptible (Escherichia coli (ECO); NAL-susceptible isolates) was 94.2%. For the same compound, the Susceptibility (E. faecalis; ICU, SRGA breakpoints, tigecycline tentative ≤2 μg/ml) was 99%, the Susceptibility (E. faecalis; non-ICU) was 100% and the Susceptible isolates (E. coli [4]; [15]) was 98%. It also gave a Susceptible isolates (E. coli [4]; non ICU) of 99%, a Susceptible isolates (K. oxytoca; ICU) of 100% and a Susceptible isolates (K. oxytoca; non ICU) of 94%. The Susceptible isolates (Enterobacter spp; ICU) was 78%, the Susceptible isolates (Enterobacter spp; non ICU) was 93% and the “susceptible strains (n/N)” value (Gram-negative rods) was 16/16.

`CNC(C)C1CCC(N)C(OC2C(N)CC(N)C(OC3OCC(C)(O)C(NC)C3O)C2O)O1` (stereo not shown) [gentamicin] gave a resistant isolates (Streptococcus pneumoniae) of 45.4%, a resistant isolates (Haemophilus influenzae) of 1.6% and a resistant isolates (Staphylococcus aureus [5]) of 12%. For the same compound, the resistant isolates [6] was 17.9%, the “resistance rate of SCV isolates” value (S. aureus SCVs) was 46.2% and the susceptibility category (K. pneumoniae) was “resistant”. For the same compound, the high-level resistance [7] was 0.9%, the “resistance rate (NCCLS M100-S13)” value [8] was 1% and the “resistance rate (NCCLS M100-S13)” value [9] was 4%. For the same compound, the “resistance rate (NCCLS M100-S13)” value [10] was 0%, the intermediatly resistant (Shigella spp.) was 34% and the sensitive (Shigella spp.) was 54%. For the same compound, the resistance rate [11] was 87,7%, the significant biofilm killing [12] was “not achieved” and the resistant isolates (Acinetobacter) was 100.0%. For the same compound, the “resistance amongst MRSA isolates” value (Staphylococcus aureus [13]; 1999) was 58.4%, the “resistance amongst MRSA isolates” value (Staphylococcus aureus [13]; 2003) was 13.1% and the resistant isolates (Escherichia coli) was 3.7%. For the same compound, the susceptible (Escherichia coli (ECO); NAL-resistant isolates) was 68.9%, the susceptible (Escherichia coli (ECO); NAL-susceptible isolates) was 91.2% and the resistance (nontyphoidal Salmonella; Belgian collection (caecal samples; Belgium, France, Netherlands)) was no more than 1%. The resistance (nontyphoidal Salmonella; Germany (carcass meat)) was no more than 1%, the Susceptible isolates (E. coli [4]; [15]) was 98/98% and the Susceptible isolates (E. coli [4]; non ICU) was 98/98%. The Susceptible isolates (K. oxytoca; ICU) was 100/100%, the Susceptible isolates (K. oxytoca; non ICU) was 100/100% and the Susceptible isolates (Enterobacter spp; ICU) was 99%. The Susceptible isolates (Enterobacter spp; non ICU) was 100%, the resistance (enterococci) was 66.7% and the resistance (E. coli [14]) was 82.7%. The resistance (P. aeruginosa) was 86.7%.
